In patent US20250304620A1, “ANTIMICROBIAL PEPTIDE AND APPLICATION THEREOF” (priority 2023, published 2025):
Marks after values point to notes of the source that are not given here. Non-standard residues stand in square brackets, D forms with d. PEG200 = polyethylene glycol 200, conjugated to the C-terminus; PEG500 = polyethylene glycol 500, conjugated to the C-terminus; 2Nal = N[C@@H](Cc1ccc2ccccc2c1)C(=O)O

Assays:
[1] = system: Staphylococcus aureus (NRS 384); assay: microbe, parasite or virus in culture; type: cell-based; conditions: Staphylococcus aureus (NRS 384)
Outline: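 CLSI broth microdilution with serial twofold dilutions gave MICs against S. aureus NRS 384, with 5 parallel replicates. Levofloxacin and the AMP Cbf-K16 served as positive controls.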

[2] = system: Bacillus subtilis ATCC 6633; type: cell-based
Excerpt: (§1) According to the Standards of Clinical and Laboratory Standards Institute (CLSI) of the USA for antimicrobial drug susceptibility test operation standards, the micronutrient serial twofold dilution method was used further determine MICs of 30 AMPs (S/N: LV-1 to LV-30) 10 clinically common sensitive strains and 6 fungi in clinical practice. The experiment was repeated 5 times in parallel.

[3] = system: Candida albicans ATCC MYA-2876; type: cell-based
Excerpt: as §1

[4] = system: Candida glabrata ATCC 15126; type: cell-based
Excerpt: as §1

Candida krusei ATCC 6258 = type: cell-based
Excerpt: as §1

[5] = system: Candida tropicalis ATCC 750; type: cell-based
Excerpt: as §1

Candida utilis ATCC 9950 = type: cell-based
Excerpt: as §1

[6] = system: Corynebacterium ATCC 7715; type: cell-based
Excerpt: as §1

Enterococcus ATCC 29212 = type: cell-based
Excerpt: as §1

[7] = system: Escherichia coli ATCC 25922; type: cell-based
Excerpt: as §1

[8] = system: Klebsiella pneumoniae ATCC 700603; type: cell-based
Excerpt: as §1

[9] = system: Pseudomonas aeruginosa ATCC 27853; type: cell-based
Excerpt: as §1

[10] = system: Salmonella typhimurium ATCC 14028; type: cell-based
Excerpt: as §1

[11] = system: Serratia marcescens ATCC 29021; type: cell-based
Excerpt: as §1

[12] = system: Staphylococcus aureus ATCC 25923; type: cell-based
Excerpt: as §1

[13] = system: Trichophyton ATCC MYA-4438; type: cell-based
Excerpt: as §1

[14] = system: Shigella flexneri ATCC 12022; assay: MIC against clinically common bacterial strain; type: cell-based
Excerpt: as §1

[15] = system: Methicillin-resistant Staphylococcus aureus (MRSA); type: cell-based; conditions: drug-resistant strain MRSA
Excerpt: (§2) According to the Standards of Clinical and Laboratory Standards Institute (CLSI) of the USA for antimicrobial drug susceptibility test operation standards, the micronutrient serial twofold dilution method was used further determine MICs of the antimicrobial peptides LV-1 to LV-30 against 5 clinically common drug-resistant bacterial strains. The experiment was repeated 5 times in parallel. […] The tested drug-resistant strains included Methicillin-resistant Staphylococcus aureus (MRSA), carbapenem-resistant Escherichia coli (CREC), vancomycin-resistant Enterococcus (VRE), carbapenem-resistant Pseudomonas aeruginosa (CRPA), and carbapenem-resistant Klebsiella pneumoniae (CRKP).

[16] = system: carbapenem-resistant Escherichia coli (CREC); type: cell-based; conditions: drug-resistant strain CREC
Excerpt: as §2

[17] = system: carbapenem-resistant Klebsiella pneumoniae (CRKP); type: cell-based; conditions: drug-resistant strain CRKP
Excerpt: as §2

[18] = system: carbapenem-resistant Pseudomonas aeruginosa (CRPA); type: cell-based; conditions: drug-resistant strain CRPA
Excerpt: as §2

[19] = system: vancomycin-resistant Enterococcus (VRE); type: cell-based; conditions: drug-resistant strain VRE
Excerpt: as §2

[20] = system: Staphylococcus aureus (NRS 384); conditions: MIC vs Staphylococcus aureus (NRS 384) after trypsin treatment 1:10 (w/w), 37° C., 3 h
Method: Trypsin (250 U/mg, pH=8.0) and AMPs (LV-1 to LV-30) were mixed in a ratio of 1:10 (w/w) and added to a reaction buffer (0.2 M sodium phosphate, 1 mM CaCl2), pH 7.5), and then incubated at 37° C. for 3 h.

[21] = system: Pseudomonas aeruginosa ATCC 27853; assay: Injectable formulations on mice infected with peritonitis; type: in vivo, ICR mice; conditions: twice a day for 3 days; for Number of mice that died on each day after infection: day 1 / Number of mice that died on each day after infection: day 2 / Number of mice that died on each day after infection: day 3 / Number of mice that died on each day after infection: day 4 / Number of mice that died on each day after infection: day 5 / Average survival times (Days): n = 10; for Average survival times (Days): observed for 14 d
Method: Both female and male ICR mice were used in the test, half of the female and male mice were taken and randomly assigned into groups, with 10 mice in each group, and kept in separate cages. The mice were divided into a blank control group, a negative control group, a positive control Levofloxacin group, and AMPs LV-1 to LV-30 groups. A bacterial suspension of Pseudomonas aeruginosa ATCC 27853 was prepared, a concentration of the suspension was adjusted 1×10^9 CFU/mL for subsequent use. Except for the blank control group, all other mice were injected with the bacterial suspension (0.2 mL, 1×10^9 CFU/mL), into abdominal cavity of the mice, to establish a model. After the model was successfully established, the mice were given drug immediately according to their body weights. Except for the blank control group and the negative control group, the mice in all other groups were administered the corresponding injectable formulations via tail vein, twice a day for 3 consecutive days. The mice were then observed for 14 d. The death of mice in each group was observed, and survival time of the mice was recorded. Results of the effect of the injectable formulations of AMPs LV-1 to LV-30 on the survival time of mice infected with Pseudomonas aeruginosa are shown in Table 10.

“Ac-RKLLXRLKXRK-PEG200 [LV-26] (Ac-RKLL[2Nal]RLK[2Nal]RK-PEG200) [polyethylene glycol 200 conjugated to C-terminal; X=3-(2-naphthyl)-alanine]” was tested, and the “MIC against Staphylococcus aureus (NRS 384)” value [1] was 1 µg/mL, the “MIC Bacillus subtilis ATCC 6633” value [2] was 4 µg/mL and the “MIC Candida albicans ATCC MYA-2876” value [3] was 8 µg/mL. For the same substance, the “MIC Candida glabrata ATCC 15126” value [4] was 8 µg/mL, the “MIC Candida krusei ATCC 6258” value (Candida krusei ATCC 6258) was 4 µg/mL and the “MIC Candida tropicalis ATCC 750” value [5] was 8 µg/mL. The “MIC Candida utilis ATCC 9950” value (Candida utilis ATCC 9950) was 16 µg/mL, the “MIC Corynebacterium ATCC 7715” value [6] was 2 µg/mL and the “MIC Enterococcus ATCC 29212” value (Enterococcus ATCC 29212) was 8 µg/mL. For the same substance, the “MIC Escherichia coli ATCC 25922” value [7] was 2 µg/mL, the “MIC Klebsiella pneumoniae ATCC 700603” value [8] was 4 µg/mL and the “MIC Pseudomonas aeruginosa ATCC 27853” value [9] was 4 µg/mL. The “MIC Salmonella typhimurium ATCC 14028” value [10] was 2 µg/mL, the “MIC Serratia marcescens ATCC 29021” value [11] was 8 µg/mL and the “MIC Staphylococcus aureus ATCC 25923” value [12] was 1 µg/mL. For the same substance, the “MIC Trichophyton ATCC MYA-4438” value [13] was 16 µg/mL, the “MIC Shigella flexneri ATCC 12022” value [14] was 4 µg/mL and the “MIC MRSA” value [15] was 4 µg/mL. The “MIC CREC” value [16] was 8 µg/mL, the “MIC CRKP” value [17] was 2 µg/mL and the “MIC CRPA” value [18] was 4 µg/mL. For the same substance, the “MIC VRE” value [19] was 2 µg/mL, the “Trypsin MIC” value [20] was 1 µg/mL and the “Number of mice that died on each day after infection: day 1” value (“Number of mice that died … day 1” for short) ([21]; 1 mg/kg via tail vein) was 1 Mouse. For the same substance, the “Number of mice that died on each day after infection: day 2” value (shortened to “Number of mice that died … day 2”) ([21]; 1 mg/kg via tail vein) was 1 Mouse, the “Number of mice that died on each day after infection: day 3” value (“Number of mice that died … day 3” below) ([21]; 1 mg/kg via tail vein) was 1 Mouse and the “Number of mice that died on each day after infection: day 4” value (from here on “Number of mice that died … day 4”) ([21]; 1 mg/kg via tail vein) was 1 Mouse. For the same substance, the “Number of mice that died on each day after infection: day 5” value (shortened to “Number of mice that died … day 5”) ([21]; 1 mg/kg via tail vein) was 1 Mouse and the “Average survival times (Days)” value ([21]; 1 mg/kg via tail vein) was 8.5** Days.

“Ac-RKLLXRLKXRK-PEG500 [LV-27] (Ac-RKLL[2Nal]RLK[2Nal]RK-PEG500) [polyethylene glycol 500 conjugated to C-terminal; X=3-(2-naphthyl)-alanine]” was tested, and the “MIC against Staphylococcus aureus (NRS 384)” value [1] was 1 µg/mL, the “MIC Bacillus subtilis ATCC 6633” value [2] was 2 µg/mL and the “MIC Candida albicans ATCC MYA-2876” value [3] was 8 µg/mL. The “MIC Candida glabrata ATCC 15126” value [4] was 8 µg/mL, the “MIC Candida krusei ATCC 6258” value (Candida krusei ATCC 6258) was 8 µg/mL and the “MIC Candida tropicalis ATCC 750” value [5] was 4 µg/mL. For the same substance, the “MIC Candida utilis ATCC 9950” value (Candida utilis ATCC 9950) was 16 µg/mL, the “MIC Corynebacterium ATCC 7715” value [6] was 8 µg/mL and the “MIC Enterococcus ATCC 29212” value (Enterococcus ATCC 29212) was 2 µg/mL. For the same substance, the “MIC Escherichia coli ATCC 25922” value [7] was 1 µg/mL, the “MIC Klebsiella pneumoniae ATCC 700603” value [8] was 8 µg/mL and the “MIC Pseudomonas aeruginosa ATCC 27853” value [9] was 1 µg/mL. The “MIC Salmonella typhimurium ATCC 14028” value [10] was 2 µg/mL, the “MIC Serratia marcescens ATCC 29021” value [11] was 4 µg/mL and the “MIC Staphylococcus aureus ATCC 25923” value [12] was 1 µg/mL. For the same substance, the “MIC Trichophyton ATCC MYA-4438” value [13] was 8 µg/mL, the “MIC Shigella flexneri ATCC 12022” value [14] was 2 µg/mL and the “MIC MRSA” value [15] was 8 µg/mL. For the same substance, the “MIC CREC” value [16] was 4 µg/mL, the “MIC CRKP” value [17] was 4 µg/mL and the “MIC CRPA” value [18] was 4 µg/mL. The “MIC VRE” value [19] was 8 µg/mL, the “Trypsin MIC” value [20] was 1 µg/mL and the “Number of mice that died … day 1” value ([21]; 0.2 mg/kg via tail vein) was 2 Mouse. For the same substance, the “Number of mice that died … day 2” value ([21]; 0.2 mg/kg via tail vein) was 2 Mouse, the “Number of mice that died … day 3” value ([21]; 0.2 mg/kg via tail vein) was 0 Mouse and the “Number of mice that died … day 4” value ([21]; 0.2 mg/kg via tail vein) was 1 Mouse. For the same substance, the “Number of mice that died … day 5” value ([21]; 0.2 mg/kg via tail vein) was 1 Mouse, the “Average survival times (Days)” value ([21]; 0.2 mg/kg via tail vein) was 7.1** Days and the “Number of mice that died … day 1” value ([21]; 1 mg/kg via tail vein) was 1 Mouse. For the same substance, the “Number of mice that died … day 2” value ([21]; 1 mg/kg via tail vein) was 1 Mouse, the “Number of mice that died … day 3” value ([21]; 1 mg/kg via tail vein) was 0 Mouse and the “Number of mice that died … day 4” value ([21]; 1 mg/kg via tail vein) was 1 Mouse. For the same substance, the “Number of mice that died … day 5” value ([21]; 1 mg/kg via tail vein) was 0 Mouse, the “Average survival times (Days)” value ([21]; 1 mg/kg via tail vein) was 10.5**** Days and the “Number of mice that died … day 1” value ([21]; 5 mg/kg via tail vein) was 0 Mouse. The “Number of mice that died … day 2” value ([21]; 5 mg/kg via tail vein) was 3 Mouse, the “Number of mice that died … day 3” value ([21]; 5 mg/kg via tail vein) was 0 Mouse and the “Number of mice that died … day 4” value ([21]; 5 mg/kg via tail vein) was 1 Mouse. For the same substance, the “Number of mice that died … day 5” value ([21]; 5 mg/kg via tail vein) was 0 Mouse, the “Average survival times (Days)” value ([21]; 5 mg/kg via tail vein) was 9.4*** Days and the “survival time of mice infected with Pseudomonas aeruginosa” value ([21]; tail vein, observed 14 d) was “superior to those of the Levofloxacin group”.
